This is an account of results in PubChem BioAssay (NCI).

Usually TGI stands for the concentration at which net growth stops. Read a low TGI as greater sensitivity of the cells.

Some test systems named below: HOP-92 NSCLC; SN12C renal; SF-295 CNS; SK-OV-3 ovarian; OVCAR-5 ovarian; LOX IMVI melanoma; EKVX NSCLC; BT-549 breast; T-47D breast; MALME-3M melanoma.
What all share (assay): DTP human tumour cell line panel, 48 h

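Exposure lasted 48 hours, with cells grown in 96-well plates and compounds tested at five concentrations. TGI: total growth inhibition.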

With `COC(=O)/C=C(\S/C=C(/c1ccccc1)N1CCn2c(C(=O)c3ccccc3)c(C(=O)OC)c(C(=O)OC)c21)C(=O)OC`, the TGI in the experiment on HOP-92 NSCLC is 4.73 µM; in the experiment with SN12C renal, above 10 µM; with SF-295 CNS, above 10 µM; with SK-OV-3 ovarian it was above 10 µM; in the experiment on OVCAR-5 ovarian, above 10 µM; with LOX IMVI melanoma it was 4.28 µM. Further, the TGI was above 10 µM with EKVX NSCLC, above 10 µM in the experiment on BT-549 breast, 5.91 µM in the experiment with T-47D breast and 4.81 µM in the experiment with MALME-3M melanoma.
Take `Cc1ccc(S(=O)(=O)N/N=C2/CC3CCC4CC2CC34)cc1` (configuration not stated): the TGI with HOP-92 NSCLC, in the experiment with SN12C renal, in the experiment with SF-295 CNS, in the experiment on SK-OV-3 ovarian, in the experiment with OVCAR-5 ovarian and in the experiment with LOX IMVI melanoma was above 100 µM in each case. Besides, the TGI in the experiment on EKVX NSCLC, in the experiment with BT-549 breast, with T-47D breast and in the experiment on MALME-3M melanoma was above 100 µM in each case.
As for `COc1cc(NC=C2C(=O)OC(C)(C)OC2=O)c(OC)c(C)c1OC`, the TGI in the experiment with HOP-92 NSCLC, with SN12C renal, in the experiment on SF-295 CNS, with SK-OV-3 ovarian, in the experiment on OVCAR-5 ovarian and with LOX IMVI melanoma was above 100 µM each time. Moreover, the TGI in the experiment on EKVX NSCLC, with BT-549 breast, in the experiment with T-47D breast and in the experiment with MALME-3M melanoma was above 100 µM each time.
For `O=C1CCCCC/C1=C\c1ccccc1`, the TGI with HOP-92 NSCLC, in the experiment with SN12C renal, in the experiment with SF-295 CNS, in the experiment with SK-OV-3 ovarian, in the experiment with OVCAR-5 ovarian and in the experiment on LOX IMVI melanoma was above 100 µM throughout. Moreover, the TGI with EKVX NSCLC, in the experiment on BT-549 breast, with T-47D breast and with MALME-3M melanoma was above 100 µM throughout.
For `CC(C)/C(=N\[N+](C)(C)C)c1ccccc1`, the TGI with HOP-92 NSCLC, with SN12C renal, in the experiment on SF-295 CNS, in the experiment on SK-OV-3 ovarian, in the experiment on OVCAR-5 ovarian and in the experiment on LOX IMVI melanoma was above 100 µM in each case. The TGI in the experiment with EKVX NSCLC, with BT-549 breast, in the experiment on T-47D breast and in the experiment on MALME-3M melanoma was above 100 µM each time.
Consider `CC(C)(C)OC(=O)CN1CCN(CC(=O)N2CCN(C(=O)OCc3ccccc3)CC2)CCN(CC(=O)OC(C)(C)C)CCN(CC(=O)N2CCN(C(=O)OCc3ccccc3)CC2)CC1`, for which the TGI in the experiment on HOP-92 NSCLC was found to be 11.4 µM; in the experiment with SN12C renal, 16.3 µM; in the experiment on SF-295 CNS it was 13.8 µM; in the experiment with SK-OV-3 ovarian it was 16.5 µM; with OVCAR-5 ovarian, 25.8 µM; in the experiment with LOX IMVI melanoma, 2.93 µM. The TGI was determined as 34.3 µM in the experiment on EKVX NSCLC, 14.5 µM with BT-549 breast, 18.8 µM with T-47D breast and 7.94 µM in the experiment with MALME-3M melanoma.
For `CC(=O)C(=[N+]=[N-])C(=O)N(C)CCC#N`, the TGI in the experiment on HOP-92 NSCLC, in the experiment with SN12C renal, in the experiment with SF-295 CNS, in the experiment with SK-OV-3 ovarian, in the experiment with OVCAR-5 ovarian and with LOX IMVI melanoma was above 10 µM each time. For the same compound, the TGI in the experiment on EKVX NSCLC, with BT-549 breast, in the experiment with T-47D breast and with MALME-3M melanoma was above 10 µM each time.
As for `COC(=O)/C=C\C(C#N)(C#N)N=Cc1sccc1C`, the total growth inhibition concentration (TGI) worked out at 3.9 µM in the experiment with HOP-92 NSCLC; 22.3 µM in the experiment with SN12C renal; 35.1 µM with SF-295 CNS; 34.1 µM in the experiment on SK-OV-3 ovarian; 14.4 µM with OVCAR-5 ovarian; 3.31 µM in the experiment with LOX IMVI melanoma. In addition, the TGI with EKVX NSCLC worked out at 15 µM; in the experiment with BT-549 breast, 11.1 µM; with T-47D breast it was 5.92 µM; in the experiment with MALME-3M melanoma, 11.3 µM.
On to `COc1ccccc1NCc1cccc2c(=O)c3ccc(Cl)cc3oc12`, for which the TGI in the experiment with HOP-92 NSCLC, in the experiment with SN12C renal, in the experiment with SF-295 CNS, in the experiment with SK-OV-3 ovarian, in the experiment on OVCAR-5 ovarian and in the experiment on LOX IMVI melanoma was above 100 µM in each case. The TGI with EKVX NSCLC, with BT-549 breast, with T-47D breast and in the experiment with MALME-3M melanoma was above 100 µM throughout.
As for `COc1c2c(cc3c1C1(O)Cc4ccc5c(c4C[N+]1(C)CC3)OCO5)OCO2` (configuration not stated), the TGI with HOP-92 NSCLC, in the experiment with SN12C renal, in the experiment on SF-295 CNS, in the experiment with SK-OV-3 ovarian, in the experiment on OVCAR-5 ovarian and with LOX IMVI melanoma was above 100 µM throughout. In addition, the TGI in the experiment on EKVX NSCLC, in the experiment with BT-549 breast, with T-47D breast and in the experiment with MALME-3M melanoma was above 100 µM throughout.
Turning to `Cc1ccc2oc3c(c(Br)c(Br)n3C)c(=O)c2c1`, the TGI in the experiment with HOP-92 NSCLC was 38.1 µM; in the experiment on SN12C renal, 47 µM; with SF-295 CNS it was 47.2 µM; with OVCAR-5 ovarian, 99.7 µM; with LOX IMVI melanoma it was above 100 µM; with EKVX NSCLC it was 44.2 µM. For the same compound, the figures for the TGI with BT-549 breast, with T-47D breast and with MALME-3M melanoma were above 100 µM, above 100 µM and 70.5 µM, respectively.
Turning to `NC(=O)c1c(NC=O)ncn1C1OCC(O)C(O)C1O` (configuration not stated), the TGI in the experiment on HOP-92 NSCLC, in the experiment with SN12C renal, with SF-295 CNS, in the experiment on SK-OV-3 ovarian, in the experiment with OVCAR-5 ovarian and in the experiment on LOX IMVI melanoma was above 100 µM each time. Moreover, the TGI with EKVX NSCLC, with BT-549 breast, in the experiment on T-47D breast and in the experiment with MALME-3M melanoma was above 100 µM in each case.
With `Nc1c2c(nc3ccccc13)-c1ccccc1NCCC2`, the TGI in the experiment with HOP-92 NSCLC is 65.6 µM; in the experiment on SN12C renal, above 100 µM; in the experiment with SF-295 CNS, 50.8 µM; in the experiment with SK-OV-3 ovarian, above 100 µM; with OVCAR-5 ovarian, above 100 µM; in the experiment with LOX IMVI melanoma, 35.5 µM. Moreover, the TGI in the experiment on EKVX NSCLC is above 100 µM; in the experiment with BT-549 breast it was above 100 µM; in the experiment on T-47D breast, 77.9 µM; in the experiment with MALME-3M melanoma it was 32.9 µM.
Regarding `CCC(O)c1ccc(N=Cc2ccccc2O)cc1` (configuration not stated), the TGI in the experiment on HOP-92 NSCLC, in the experiment with SF-295 CNS, with SK-OV-3 ovarian, with OVCAR-5 ovarian, in the experiment with LOX IMVI melanoma and with EKVX NSCLC was above 100 µM throughout. Besides, the TGI in the experiment with BT-549 breast, with T-47D breast and with MALME-3M melanoma was above 100 µM each time.
As to `CC[P+]1(c2ccccc2)[C@@H](C)CC[C@@H]1C`, the TGI in the experiment with HOP-92 NSCLC, with SN12C renal, in the experiment on SF-295 CNS, in the experiment on SK-OV-3 ovarian, with OVCAR-5 ovarian and with LOX IMVI melanoma was above 100 µM each time. The TGI in the experiment with EKVX NSCLC, in the experiment on BT-549 breast, with T-47D breast and in the experiment with MALME-3M melanoma was above 100 µM in each case.
As for `CO[C@@H]1C[C@H](OC(N)=O)[C@@H]2C=C[C@@H]3/C=C(C)/C=C/[C@@H](C)[C@H](/C(C)=C/[C@@H](C)NC(C)=O)OC(=O)/C=C/C=C(C)\C=C\[C@]3(C)[C@@H]2C1`, the TGI in the experiment on HOP-92 NSCLC turned out to be 0.148 µM; in the experiment on SN12C renal, 1.67 µM; in the experiment with SF-295 CNS, 0.111 µM; in the experiment on SK-OV-3 ovarian, 0.192 µM; in the experiment with OVCAR-5 ovarian, 3.63 µM; in the experiment on LOX IMVI melanoma it was 0.00689 µM. The TGI turned out to be 0.843 µM in the experiment on EKVX NSCLC, 12 µM with BT-549 breast, 2.98 µM in the experiment with T-47D breast and 0.798 µM in the experiment on MALME-3M melanoma.
For the compound `CCN(CC)CCCNc1[nH]ncc2c(C)c3nc4ccc(OC)cc4c3cc12`, the TGI in the experiment with HOP-92 NSCLC came out at 3.14 µM; with SN12C renal, 1.77 µM; in the experiment on SF-295 CNS, 6.48 µM; in the experiment on SK-OV-3 ovarian, 5.33 µM; with OVCAR-5 ovarian it was 6.66 µM; in the experiment with LOX IMVI melanoma, 0.829 µM. Also, the TGI was 10.9 µM in the experiment on EKVX NSCLC, 3.19 µM in the experiment on BT-549 breast, 3.36 µM in the experiment with T-47D breast and 2.36 µM in the experiment with MALME-3M melanoma.
With `C=CCN(c1cc(OC)c2[nH]c(C(=O)OCC)c(C)c2c1[N+](=O)[O-])S(C)(=O)=O`, the TGI is 72.4 µM with HOP-92 NSCLC; 56.1 µM in the experiment with SN12C renal; above 100 µM in the experiment with SF-295 CNS; above 100 µM in the experiment with SK-OV-3 ovarian; 99.1 µM in the experiment on OVCAR-5 ovarian; 39.4 µM in the experiment on LOX IMVI melanoma. Moreover, the TGI in the experiment on EKVX NSCLC turned out to be 46.2 µM; in the experiment with BT-549 breast, 60.5 µM; in the experiment on T-47D breast it was 48.6 µM; in the experiment on MALME-3M melanoma, 60.8 µM.
As to `Cc1c(N2C(=O)/C(=C/c3ccc(N(CCC#N)CCC#N)cc3)N=C2c2ccccc2)c(=O)n(-c2ccccc2)n1C`, the TGI in the experiment on HOP-92 NSCLC, with SN12C renal, in the experiment on SF-295 CNS, in the experiment with SK-OV-3 ovarian, with OVCAR-5 ovarian and in the experiment on LOX IMVI melanoma was above 100 µM throughout. For the same compound, the TGI in the experiment with EKVX NSCLC, with BT-549 breast, in the experiment with T-47D breast and with MALME-3M melanoma was above 100 µM each time.
Regarding `COc1cccc2cc(C(C)=O)c(=O)oc12`, the TGI in the experiment on HOP-92 NSCLC, in the experiment with SN12C renal, in the experiment on SF-295 CNS, in the experiment on OVCAR-5 ovarian, with LOX IMVI melanoma and with EKVX NSCLC was above 100 µM each time. Besides, the TGI in the experiment on BT-549 breast, in the experiment with T-47D breast and in the experiment with MALME-3M melanoma was above 100 µM in each case.
